Data taken from US20030186817A1, “SUBSTITUTED 2,4-DIAMINO-1,3,5-TRIAZINES, PROCESSES FOR THEIR PREPARATION AND THEIR USE AS HERBICIDES AND PLANT GROWTH REGULATORS” (priority 1998, published 2003).

Legend:
[1] = system: Stellaria media, Amaranthus retroflexus, Sinapis avreuse, Avena fatura, Lolium multiflorum and Setaria viridis; test: Pre-emergence action against weeds (greenhouse pot test, visual rating); type: in vivo; settings: application rate of 3.0 kg or less of active substance per hectare, trial period of 3 to 4 weeks
Excerpt: Seeds of mono- and dicotyledonous weed plants are placed in sandy loam soil in cardboard pots and covered with soil. The novel compounds, formulated as wettable powders or emulsion concentrates, are then applied to the surface of the soil cover in the form of an aqueous suspension or emulsion at an application rate of from 600 to 800 l of water/ha (converted), in various dosages. After the treatment, the pots are placed in a greenhouse and kept under good growth conditions for the weeds. After the test plants have emerged after a trial period of 3 to 4 weeks, the damage to the plants or the negative effect on emergence is rated visually by comparison with untreated controls. As shown by the test results, the novel compounds have good herbicidal pre-emergence activity against a broad spectrum of weed grasses and broad-leaved weeds.

[2] = system: Stellaria media, Amaranthus retroflexus, Sinapis avreuse, Avena fatura, Lolium multiflorum and Setaria viridis; test: Post-emergence action against weeds (greenhouse pot test, visual rating); type: in vivo; settings: three-leaf stage, application rate of 3.0 kg or less of active substance per hectare, 3 to 4 weeks in greenhouse
Method: Seeds of mono- and dicotyledonous weeds are placed in sandy loam soil in cardboard pots, covered with soil and cultivated in a greenhouse under good growth conditions. Two to three weeks after sowing, the test plants are treated at the three-leaf stage. The novel compounds, formulated as wettable powders or emulsion concentrates, are sprayed in various dosages onto the green parts of the plant at an application rate of from 600 to 8001 of water/ha (converted), and, after the test plants have remained in the greenhouse for 3 to 4 weeks under optimum growth conditions, the action of the preparations is rated visually by comparison with untreated controls. The novel compositions also have good post-emergence herbicidal activity against a broad spectrum of economically important weed grasses and broad-leaved weeds.

SMILES: CCC(CCCOc1ccccc1)Nc1nc(N)nc(C(C)(C)F)n1 (stereo not shown) [Example 490]
- herbicidal activity pre-emergence (damage to the plants or negative effect on emergence, rated visually) [1]: good and in most cases very good herbicidal activity
- herbicidal activity post-emergence (rated visually) [2]: good and in most cases very good herbicidal activity

SMILES: CC(COCCOc1ccccc1)Nc1nc(N)nc(C(C)(C)F)n1 (stereo not shown) [Example 1385]
- herbicidal activity pre-emergence (damage to the plants or negative effect on emergence, rated visually) [1]: good and in most cases very good herbicidal activity
- herbicidal activity post-emergence (rated visually) [2]: good and in most cases very good herbicidal activity

SMILES: Cc1cccc(OCCCC(C)Nc2nc(N)nc(C(C)F)n2)c1 (stereo not shown) [Example 532]
- herbicidal activity pre-emergence (damage to the plants or negative effect on emergence, rated visually) [1]: good and in most cases very good herbicidal activity
- herbicidal activity post-emergence (rated visually) [2]: good and in most cases very good herbicidal activity

SMILES: CC(COC(=O)c1cccc(C(F)(F)F)c1)Nc1nc(N)nc(C(C)C)n1 (stereo not shown) [Example 78]
- herbicidal activity pre-emergence (damage to the plants or negative effect on emergence, rated visually) [1]: good and in most cases very good herbicidal activity
- herbicidal activity post-emergence (rated visually) [2]: good and in most cases very good herbicidal activity

SMILES: CC(C)c1nc(N)nc(NC(CCCOc2ccccc2)C2CC2)n1 (stereo not shown) [Example 554]
- herbicidal activity pre-emergence (damage to the plants or negative effect on emergence, rated visually) [1]: good and in most cases very good herbicidal activity
- herbicidal activity post-emergence (rated visually) [2]: good and in most cases very good herbicidal activity

SMILES: CC(F)c1nc(N)nc(NC(CCCCOc2ccccc2)C2CC2)n1 (stereo not shown) [Example 681]
- herbicidal activity pre-emergence (damage to the plants or negative effect on emergence, rated visually) [1]: good and in most cases very good herbicidal activity
- herbicidal activity post-emergence (rated visually) [2]: good and in most cases very good herbicidal activity

SMILES: CC(CCCOc1ccccc1)Nc1nc(N)nc(C(C)C)n1 (stereo not shown) [Example 531]
- herbicidal activity pre-emergence (damage to the plants or negative effect on emergence, rated visually) [1]: good and in most cases very good herbicidal activity
- herbicidal activity post-emergence (rated visually) [2]: good and in most cases very good herbicidal activity

SMILES: Cc1ccccc1C(=O)OCCNc1nc(N)nc(C(C)C)n1 [Example 43]
- herbicidal activity post-emergence (rated visually) [2]: good and in most cases very good herbicidal activity

SMILES: CC(CCCOc1ccccc1)Nc1nc(N)nc(C(C)(C)F)n1 (stereo not shown) [Example 501]
- herbicidal activity pre-emergence (damage to the plants or negative effect on emergence, rated visually) [1]: good and in most cases very good herbicidal activity
- herbicidal activity post-emergence (rated visually) [2]: good and in most cases very good herbicidal activity

SMILES: CC(C)c1nc(N)nc(NCC=NOCc2ccccc2)n1 [Example 1253]
- herbicidal activity pre-emergence (damage to the plants or negative effect on emergence, rated visually) [1]: good and in most cases very good herbicidal activity
- herbicidal activity post-emergence (rated visually) [2]: good and in most cases very good herbicidal activity

SMILES: CCCc1nc(N)nc(NC(CC)CCCCOc2ccccc2)n1 (stereo not shown) [Example 618]
- herbicidal activity pre-emergence (damage to the plants or negative effect on emergence, rated visually) [1]: good and in most cases very good herbicidal activity
- herbicidal activity post-emergence (rated visually) [2]: good and in most cases very good herbicidal activity

SMILES: CC(CCCCOc1ccccc1)Nc1nc(N)nc(C(C)F)n1 (stereo not shown) [Example 626]
- herbicidal activity pre-emergence (damage to the plants or negative effect on emergence, rated visually) [1]: good and in most cases very good herbicidal activity
- herbicidal activity post-emergence (rated visually) [2]: good and in most cases very good herbicidal activity

SMILES: CC(C)c1nc(N)nc(NCCOC(=O)c2ccccc2Cl)n1 [Example 20]
- herbicidal activity post-emergence (rated visually) [2]: good and in most cases very good herbicidal activity

SMILES: CCC(COCCOc1ccccc1)Nc1nc(N)nc(C(C)F)n1 (stereo not shown) [Example 1346]
- herbicidal activity pre-emergence (damage to the plants or negative effect on emergence, rated visually) [1]: good and in most cases very good herbicidal activity
- herbicidal activity post-emergence (rated visually) [2]: good and in most cases very good herbicidal activity

SMILES: CC(COCc1cccc(Br)c1)Nc1nc(N)nc(C(C)(C)F)n1 (stereo not shown) [Example 76]
- herbicidal activity pre-emergence (damage to the plants or negative effect on emergence, rated visually) [1]: good and in most cases very good herbicidal activity

SMILES: CCC(CCCOc1cccc(C)c1)Nc1nc(N)nc(C(C)C)n1 (stereo not shown) [Example 553]
- herbicidal activity pre-emergence (damage to the plants or negative effect on emergence, rated visually) [1]: good and in most cases very good herbicidal activity
- herbicidal activity post-emergence (rated visually) [2]: good and in most cases very good herbicidal activity

SMILES: CC(C)c1nc(N)nc(NCCOC(=O)c2cccc(C(F)(F)F)c2)n1 [Example 80]
- herbicidal activity post-emergence (rated visually) [2]: good and in most cases very good herbicidal activity

SMILES: Cc1cc(C)cc(OCCC(C)Nc2nc(N)nc(C(C)(C)F)n2)c1 (stereo not shown) [Example 282]
- herbicidal activity pre-emergence (damage to the plants or negative effect on emergence, rated visually) [1]: good and in most cases very good herbicidal activity

SMILES: CCCc1nc(N)nc(NC(C)COCCOc2ccccc2)n1 (stereo not shown) [Example 1404]
- herbicidal activity pre-emergence (damage to the plants or negative effect on emergence, rated visually) [1]: good and in most cases very good herbicidal activity
- herbicidal activity post-emergence (rated visually) [2]: good and in most cases very good herbicidal activity

SMILES: CC(F)c1nc(N)nc(NCC(=O)NCc2ccccc2)n1 (stereo not shown) [Example 930]
- herbicidal activity pre-emergence (damage to the plants or negative effect on emergence, rated visually) [1]: good and in most cases very good herbicidal activity
- herbicidal activity post-emergence (rated visually) [2]: good and in most cases very good herbicidal activity

SMILES: CC(CCCCOc1ccccc1)Nc1nc(N)nc(C(F)(F)C(F)F)n1 (stereo not shown) [Example 696]
- herbicidal activity pre-emergence (damage to the plants or negative effect on emergence, rated visually) [1]: good and in most cases very good herbicidal activity
- herbicidal activity post-emergence (rated visually) [2]: good and in most cases very good herbicidal activity

SMILES: CCC(CCOc1cc(F)cc(F)c1)Nc1nc(N)nc(C(C)C)n1 (stereo not shown) [Example 305]
- herbicidal activity pre-emergence (damage to the plants or negative effect on emergence, rated visually) [1]: good and in most cases very good herbicidal activity
- herbicidal activity post-emergence (rated visually) [2]: good and in most cases very good herbicidal activity

SMILES: CC(F)c1nc(N)nc(NCC=NOCc2ccccc2)n1 (stereo not shown) [Example 1307]
- herbicidal activity pre-emergence (damage to the plants or negative effect on emergence, rated visually) [1]: good and in most cases very good herbicidal activity
- herbicidal activity post-emergence (rated visually) [2]: good and in most cases very good herbicidal activity

SMILES: CCc1nc(N)nc(NCC=NOCc2cc(C)cc(C)c2)n1 [Example 1235]
- herbicidal activity pre-emergence (damage to the plants or negative effect on emergence, rated visually) [1]: good and in most cases very good herbicidal activity
- herbicidal activity post-emergence (rated visually) [2]: good and in most cases very good herbicidal activity

SMILES: CC(C)(F)c1nc(N)nc(NC2CCCCC2COc2ccccc2)n1 (stereo not shown) [Example 869]
- herbicidal activity pre-emergence (damage to the plants or negative effect on emergence, rated visually) [1]: good and in most cases very good herbicidal activity
- herbicidal activity post-emergence (rated visually) [2]: good and in most cases very good herbicidal activity

SMILES: Cc1cccc(CNC(=O)C(C)Nc2nc(N)nc(C(C)C)n2)c1 (stereo not shown) [Example 1005]
- herbicidal activity pre-emergence (damage to the plants or negative effect on emergence, rated visually) [1]: good and in most cases very good herbicidal activity
- herbicidal activity post-emergence (rated visually) [2]: good and in most cases very good herbicidal activity

SMILES: CC(C)c1nc(N)nc(NCC(=O)NCc2ccccc2)n1 [Example 987]
- herbicidal activity pre-emergence (damage to the plants or negative effect on emergence, rated visually) [1]: good and in most cases very good herbicidal activity
- herbicidal activity post-emergence (rated visually) [2]: good and in most cases very good herbicidal activity

SMILES: CC(CCOc1cc(F)cc(F)c1)Nc1nc(N)nc(C(F)(F)C(F)F)n1 (stereo not shown) [Example 297]
- herbicidal activity pre-emergence (damage to the plants or negative effect on emergence, rated visually) [1]: good and in most cases very good herbicidal activity
- herbicidal activity post-emergence (rated visually) [2]: good and in most cases very good herbicidal activity

SMILES: Cc1cc(C)cc(OCCC(C)Nc2nc(N)nc(C(C)C)n2)c1 (stereo not shown) [Example 339]
- herbicidal activity pre-emergence (damage to the plants or negative effect on emergence, rated visually) [1]: good and in most cases very good herbicidal activity

SMILES: Cc1cc(C)cc(CON=CCNc2nc(N)nc(C(C)C)n2)c1 [Example 1251]
- herbicidal activity pre-emergence (damage to the plants or negative effect on emergence, rated visually) [1]: good and in most cases very good herbicidal activity
- herbicidal activity post-emergence (rated visually) [2]: good and in most cases very good herbicidal activity

SMILES: CCCCc1ccc(C(=O)OCC(C)Nc2nc(N)nc(C(C)C)n2)cc1 (stereo not shown) [Example 184]
- herbicidal activity post-emergence (rated visually) [2]: good and in most cases very good herbicidal activity

SMILES: CCC(COCCOc1cccc(Cl)c1)Nc1nc(N)nc(C(C)(C)F)n1 (stereo not shown) [Example 1364]
- herbicidal activity pre-emergence (damage to the plants or negative effect on emergence, rated visually) [1]: good and in most cases very good herbicidal activity
- herbicidal activity post-emergence (rated visually) [2]: good and in most cases very good herbicidal activity

SMILES: CCC(COC(=O)c1ccc(F)cc1Cl)Nc1nc(N)nc(C(C)C)n1 (stereo not shown) [Example 23]
- herbicidal activity post-emergence (rated visually) [2]: good and in most cases very good herbicidal activity

SMILES: Cc1cc(C)cc(OCCC(C)Nc2nc(N)nc(C(F)(F)C(F)F)n2)c1 (stereo not shown) [Example 329]
- herbicidal activity pre-emergence (damage to the plants or negative effect on emergence, rated visually) [1]: good and in most cases very good herbicidal activity

SMILES: Cc1cc(C)cc(COCC(C)Nc2nc(N)nc(C(C)(C)F)n2)c1 (stereo not shown) [Example 64]
- herbicidal activity pre-emergence (damage to the plants or negative effect on emergence, rated visually) [1]: good and in most cases very good herbicidal activity

SMILES: CC(COCc1ccc(Cl)cc1)Nc1nc(N)nc(C(C)(C)F)n1 (stereo not shown) [Example 167]
- herbicidal activity pre-emergence (damage to the plants or negative effect on emergence, rated visually) [1]: good and in most cases very good herbicidal activity
